Patent US20230023559A1, “ARYLMETHYLENE HETEROCYCLIC COMPOUNDS AS KV1.3 POTASSIUM SHAKER CHANNEL BLOCKERS” (D. E. Shaw Research, LLC, priority 2019, published 2023)
pIC50: −log10 of the molar value.

Target: T1, Kv1.3 potassium channel (Homo sapiens, UniProt P22001)
T1 construct: expressed in transfected cells
Experiment: Kv1.3 potassium channel blocker activity, automated whole-cell patch clamp (Patchliner)
Type: cell-based
Conditions: CHO-K1 cells stably expressing Kv1.3; whole cell current inhibition; read-out: Kv1.3_IC50
Procedure: The assay described below is used to evaluate the disclosed compound's activities as Kv1.3 potassium channel blockers.
CHO-K1 cells stably expressing Kv1.3 were grown in DMEM containing 10% heat-inactivated FBS, 1 mM Sodium Pyruvate, 2 mM L-Glutamine and G418 (500 μg/ml).
All compounds were dissolved in DMSO at 30 mM.
The currents were evoked by applying 100 ms depolarizing pulses from −90 mV (holding potential) to +40 mV were applied with 0.1 Hz frequency. […] 10 second breaks were used between pulse trains (see Table A below).
Data were sampled at 10 kHz without filtering. Passive leak currents were subtracted online using a P/4 procedure (HEKA Elektronik Dr. Schulze GmbH). […] Total compound incubation time before the next pulse train was not longer than 10 seconds. Peak current inhibition was observed during compound equilibration.

T1 sequence (P22001 whole entry): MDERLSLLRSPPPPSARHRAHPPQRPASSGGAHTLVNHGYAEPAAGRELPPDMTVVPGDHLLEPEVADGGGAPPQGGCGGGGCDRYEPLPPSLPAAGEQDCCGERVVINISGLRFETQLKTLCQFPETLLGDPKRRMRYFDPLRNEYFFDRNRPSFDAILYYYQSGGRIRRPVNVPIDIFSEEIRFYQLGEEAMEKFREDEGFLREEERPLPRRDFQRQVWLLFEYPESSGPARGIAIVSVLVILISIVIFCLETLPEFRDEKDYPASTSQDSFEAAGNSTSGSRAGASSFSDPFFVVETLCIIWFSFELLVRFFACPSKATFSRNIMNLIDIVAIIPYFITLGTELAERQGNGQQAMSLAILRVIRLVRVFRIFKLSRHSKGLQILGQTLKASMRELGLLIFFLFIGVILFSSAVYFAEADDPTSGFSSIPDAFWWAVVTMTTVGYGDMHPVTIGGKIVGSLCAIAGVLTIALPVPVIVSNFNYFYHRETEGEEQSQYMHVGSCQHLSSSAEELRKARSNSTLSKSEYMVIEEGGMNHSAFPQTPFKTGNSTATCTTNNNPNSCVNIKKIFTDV

Row | SMILES | pIC50
1 | Cc1cc(O)c([C@H](N)C2CCN(C(=O)c3ccc4[nH]c(=O)[nH]c4c3)CC2)cc1Cl [Compound 256, 5-[4-[(R)-amino (5-chloro-2-hydroxy-4-methylphenyl)methyl]piperidine-1-carbonyl]-1,3-dihydro-1,3-benzodiazol-2-one trifluoroacetic acid] | > 6.30
2 | Cc1cc(O)c([C@H](N)C2CCN(C(=O)c3ccc4oc(=O)[nH]c4c3)CC2)cc1Cl [Compound 258, 5-[4-[(R)-amino(5-chloro-2-hydroxy-4-methylphenyl)methyl]piperidine-1-carbonyl]-3H-1,3-benzoxazol-2-one formic acid] | > 6.30
3 | Cc1cc(O)c([C@H](N)C2CCN(C(=O)c3ccc4c(c3)CCC(=O)N4)CC2)cc1Cl [Compound 259, 6-[4-[(R)-amino (5-chloro-2-hydroxy-4-methylphenyl)methyl]piperidine-1-carbonyl]-3,4-dihydro-1H-quinolin-2-one trifluoroacetic acid] | > 6.30
4 | N[C@@H](c1cc(Cl)c(Cl)cc1O)C1CCN(C(=O)C2CNC(=O)O2)CC1 (stereo partly drawn) [Compound 261, 5-[4-[(R)-amino(4,5-dichloro-2-hydroxyphenyl)methyl]piperidine-1-carbonyl]-1,3-oxazolidin-2-one trifluoroacetic acid] | > 6.30
5 | Cc1cc(O)c([C@H](N)C2CCN(C(=O)c3ccc4c(c3)NC(=O)C4)CC2)cc1Cl [Compound 263, 6-[4-[(R)-amino (5-chloro-2-hydroxy-4-methylphenyl)methyl]piperidine-1-carbonyl]-1,3-dihydroindol-2-one trifluoroacetic acid] | > 6.30
6 | Cc1cc(O)c([C@H](N)C2CCN(C(=O)c3ccc4c(c3)OCC(=O)N4)CC2)cc1Cl [Compound 265, 7-[4-[(R)-amino(5-chloro-2-hydroxy-4-methylphenyl)methyl]piperidine-1-carbonyl]-2,4-dihydro-1,4-benzoxazin-3-one trifluoroacetic acid] | > 6.30
7 | N[C@@H](c1c(O)cc(Cl)c(Cl)c1F)C1CCN(C(=O)c2c[nH]c(=O)c(Cl)c2)CC1 [Compound 266, 5-[4-[(R)-amino(3,4-dichloro-2-fluoro-6-hydroxyphenyl)methyl]piperidine-1-carbonyl]-3-chloro-1H-pyridin-2-one Trifluoroacetic Acid] | > 6.30
8 | Cc1cc(O)c([C@H](N)C2CCN(C(=O)c3ccc4c(c3)CC(=O)N4)CC2)cc1Cl [Compound 267, 5-[4-[(R)-amino (5-chloro-2-hydroxy-4-methylphenyl)methyl]piperidine-1-carbonyl]-1,3-dihydroindol-2-one trifluoroacetic acid] | > 6.30
9 | CN1CC(C(=O)N2CCC([C@@H](N)c3cc(Cl)c(Cl)cc3O)CC2)OCC1=O (stereo partly drawn) [Compound 268, 6-[4-[(R)-amino(4,5-dichloro-2-hydroxyphenyl)methyl]piperidine-1-carbonyl]-4-methylmorpholin-3-one trifluoroacetic acid] | > 6.30
10 | Cc1cc(O)c([C@H](N)C2CCN(C(=O)c3ccc4c(c3)NC(=O)CO4)CC2)cc1Cl [Compound 269, 6-[4-[(R)-amino (5-chloro-2-hydroxy-4-methylphenyl)methyl]piperidine-1-carbonyl]-2,4-dihydro-1,4-benzoxazin-3-one] | > 5.00
11 | Cc1cc(O)c([C@H](N)C2CCN(C(=O)c3cc(Cl)c(=O)n(C)c3)CC2)cc1Cl [Compound 270, 5-[4-[(R)-amino (5-chloro-2-hydroxy-4-methylphenyl)methyl]piperidine-1-carbonyl]-3-chloro-1-methyl-pyridin-2-one trifluoroacetic acid] | > 6.30
12 | Cc1cc(O)c([C@H](N)C2CCN(C(=O)c3ccc4[nH]c(=O)oc4c3)CC2)cc1Cl [Compound 271, 6-[4-[(R)-amino(5-chloro-2-hydroxy-4-methylphenyl)methyl]piperidine-1-carbonyl]-3H-1,3-benzoxazol-2-one] | > 5.00
13 | Cc1cc(O)c([C@H](N)C2CCN(C(=O)c3ccc4c(c3)NC(=O)CC4)CC2)cc1Cl [Compound 273, 7-[4-[(R)-amino (5-chloro-2-hydroxy-4-methylphenyl)methyl]piperidine-1-carbonyl]-3,4-dihydro-1H-quinolin-2-one trifluoroacetic acid] | > 5.00
14 | CC(C)c1cc(O)c([C@H](N)C2CCN(C(=O)[C@H](O)CO)CC2)cc1Cl [Compound 282, (2R)-1-(4-((R)-amino(5-chloro-2-hydroxy-4-isopropylphenyl)methyl)piperidin-1-yl)-2,3-dihydroxypropan-1-one] | > 4.52
15 | N[C@@H](c1cc(Cl)c(F)cc1O)C1CCN(C(=O)[C@H](O)CO)CC1 [Compound 285, (2R)-1-[4-[(R)-amino(5-chloro-4-fluoro-2-hydroxyphenyl)methyl]piperidin-1-yl]-2,3-dihydroxypropan-1-one Trifluoroacetic Acid] | > 5.00
16 | N#Cc1cc(O)c([C@H](N)C2CCN(C(=O)[C@H](O)CO)CC2)cc1Cl [Compound 286, 4-[(R)-amino([1-[(2R)-2,3-dihydroxypropanoyl]piperidin-4-yl])methyl]-2-chloro-5-hydroxybenzonitrile Trifluoroacetic Acid] | > 5.00
17 | N[C@H](c1c(O)cc(Cl)c(Cl)c1F)C1CCN(C(=O)[C@H](O)CO)CC1 [Compound 287, (R)-1-(4-((S)-amino(3,4-dichloro-2-fluoro-6-hydroxyphenyl)methyl)piperidin-1-yl)-2,3-dihydroxypropan-1-one] | > 5.00
18 | N[C@@H](c1cc(Cl)c(C2CCC2)cc1O)C1CCN(C(=O)[C@H](O)CO)CC1 [Compound 288, (2R)-1-[4-[(R)-amino(5-chloro-4-cyclobutyl-2-hydroxyphenyl)methyl]piperidin-1-yl]-2,3-dihydroxypropan-1-one Trifluoroacetic Acid] | > 4.52
19 | NC(c1cc(Cl)c(Cl)c(F)c1O)C1CCN(C(=O)[C@H](O)CO)CC1 (stereo partly drawn) [Compound 290, (2R)-1-[4-[amino(4,5-dichloro-3-fluoro-2-hydroxyphenyl)methyl]piperidin-1-yl]-2,3-dihydroxypropan-1-one Trifluoroacetic Acid] | > 5.00
20 | Cc1ccc([C@H](N)C2CCN(C(=O)[C@H](O)CO)CC2)c(O)c1 [Compound 294, (2R)-1-[4-[(R)-amino(2-hydroxy-4-methylphenyl)methyl]piperidin-1-yl]-2,3-dihydroxypropan-1-one Trifluoroacetic Acid] | > 5.00
21 | N[C@@H](c1cc(Cl)ccc1O)C1CCN(C(=O)[C@H](O)CO)CC1 [Compound 295, (2R)-1-[4-[(R)-amino(5-chloro-2-hydroxyphenyl)methyl]piperidin-1-yl]-2,3-dihydroxypropan-1-one] | > 5.00
22 | Nc1cnc(C(=O)N2CCC([C@@H](N)c3cc(Cl)c(Cl)cc3O)CC2)cn1 [Compound 307, 2-[(R)-amino[1-(5-aminopyrazine-2-carbonyl)piperidin-4-yl]methyl]-4,5-dichlorophenol trifluoroacetic acid] | > 5.00
23 | CC1(C(N)c2cc(Cl)c(Cl)cc2O)CCN(C(=O)[C@H](O)CO)CC1 (stereo partly drawn) [Compound 309, (2R)-1-[4-[amino(4,5-dichloro-2-hydroxyphenyl)methyl]-4-methylpiperidin-1-yl]-2,3-dihydroxypropan-1-one Trifluoroacetic Acid] | > 5.00
24 | N[C@H](c1cc(Cl)c(Cl)cc1O)[C@@H]1CCN(C(=O)[C@H](O)CO)C1 [Compound 310, (2R)-1-[(3R)-3-[(S)-amino(4,5-dichloro-2-hydroxyphenyl)methyl]pyrrolidin-1-yl]-2,3-dihydroxypropan-1-one] | > 5.00
25 | N[C@@H](c1cc(Cl)c(Cl)cc1O)[C@@H]1CCN(C(=O)[C@H](O)CO)C1 [Compound 311, (2R)-1-[(3R)-3-[(R)-amino(4,5-dichloro-2-hydroxyphenyl)methyl]pyrrolidin-1-yl]-2,3-dihydroxypropan-1-one] | > 5.00
26 | N[C@@H](c1cc(Cl)c(Cl)cc1O)C1C2CCC1CN(C(=O)[C@H](O)CO)C2 (stereo partly drawn) [Compound 313, (2R)-1-[8-[(R)-amino(4,5-dichloro-2-hydroxyphenyl)methyl]-3-azabicyclo[3.2.1]octan-3-yl]-2,3-dihydroxypropan-1-one Trifluoroacetic Acid] | > 5.00
27 | N[C@H](c1cc(Cl)c(Cl)cc1O)C1C2CCC1CN(C(=O)[C@H](O)CO)C2 (stereo partly drawn) [Compound 314, (2R)-1-[8-[(S)-amino(4,5-dichloro-2-hydroxyphenyl)methyl]-3-azabicyclo[3.2.1]octan-3-yl]-2,3-dihydroxypropan-1-one Trifluoroacetic Acid] | > 4.52
28 | N[C@@H](c1cc(Cl)c(Cl)cc1O)C1CC2CC1CN2C(=O)[C@H](O)CO (stereo partly drawn) [Compound 315, (2R)-1-(5-((R)-amino(4,5-dichloro-2-hydroxyphenyl)methyl)-2-azabicyclo[2.2.1]heptan-2-yl)-2,3-dihydroxypropan-1-one Trifluoroacetic Acid] | > 5.00
29 | N[C@H](c1cc(Cl)c(Cl)cc1O)C1CC2CC1CN2C(=O)[C@H](O)CO (stereo partly drawn) [Compound 316, (2R)-1-(5-((S)-amino(4,5-dichloro-2-hydroxyphenyl)methyl)-2-azabicyclo[2.2.1]heptan-2-yl)-2,3-dihydroxypropan-1-one Trifluoroacetic Acid] | > 5.00
30 | N[C@@H](c1cc(Cl)c(C2=CCCC2)cc1O)C1CCN(C(=O)[C@H](O)CO)CC1 [Compound 318, (2R)-1-[4-[(R)-amino[5-chloro-4-(cyclopent-1-en-1-yl)-2-hydroxyphenyl]methyl]piperidin-1-yl]-2,3-dihydroxypropan-1-one Trifluoroacetic Acid] | > 4.52
